What was measured:
Set2 cells = experiment: GI50 assay (Cell Titer Glo viability); assay type: cell-based, human; conditions: for sensitivity of parental and engineered Ras effector-activated cells (relative proliferation): Set2 ORF-expressing derivatives; for sensitization of resistant and parental Set2 cells to JAK inhibitors, co-inhibition of Akt and ERK pathways: MK-2206 plus AZD-6244 (2 μM) plus respective JAK inhibitor
Protocol: (§1) Cells were seeded into 6-well plates and infected with the desired ORF activating allele or control vector. Lentiviruses were produced and applied as previously described (42). Following two days of puromycin selection (2 μg/ml), infected cells were seeded into 96-well plates at 5,000 cells/well.
(§2) To generate […] curves, cells were treated with vehicle (DMSO) or an eight-log serial dilution of drug to yield final concentrations of […]. Each treatment condition was represented by at least three replicates. Three to four days after drug addition, cell viability was measured using Cell Titer Glo® (Promega). Relative viability was then calculated by normalizing luminescence values for each treatment condition to control treated wells.
(§3) To generate GI50 curves for drug combinations, slight modifications are made. Primary drug was applied and diluted as above while the second drug was kept at a constant concentration across all wells except the DMSO-only condition. Viability for all primary drug dilutions was then calculated relative to luminescence values from the secondary drug-only condition. Dose-response curves were fit using Graph pad/Prism 6 software.

HEL92.1.7 cells = experiment: GI50 assay (Cell Titer Glo viability); assay type: cell-based, human; conditions: for sensitivity of parental and engineered Ras effector-activated cells (viability and apoptosis): HEL92.1.7 ORF-expressing derivatives, apoptosis at 48 hours; for resensitization of Ras-expressing cells to INCB, dual ERK and Akt inhibition: INCB with both VX-11E (2 μM) and MK-2206 (10 μM)
Protocol: as §1, §2, §3

[1] = JAK inhibitor combined with ABT-737; cited from earlier work
[2] = system: multiple JAK2^V617F cell lines; conditions: parental JAK2^V617F cell lines (HEL92.1.7 72 h, Set2 24 h)
Excerpt: Error bars indicate SD of three replicate experiments. (B) Digitonin-permeabilized HEL92.1.7 cells transduced with the indicated constructs were stained with the mitochondrial potential-sensitive JC1 dye and treated with a panel of BH3 peptides. Percent depolarization is shown as the area under the curve (AUC) normalized to positive control fully depolarized mitochondria (FCCP). DMSO serves as the negative control. Data shown are representative of three independent experiments for each cell line derivative. (C) Same as in (B) except in this case the indicated JAK2^V617F positive cell lines were profiled to query their apoptotic dependencies. […] Blots are representative of three replicate experiments. (E) Twenty-four hours after transduction with the indicated ORFs, HMLE and HEL92.1.7 cells were stained with 7AAD and Annexin V to measure induction of apoptosis. Error bars indicate SD of three replicate experiments.
Cells were seeded in six-well plates and treated with either the indicated amount of drug or vehicle (DMSO). Cells were incubated for the indicated time, washed twice with ice-cold PBS, and resuspended in IX Annexin V binding buffer (10 mM HEPES, 140 mM NaCl, 2.5 mM CaCl2; BD Biosciences). Surface exposure of phosphatidylserine was measured using APC-conjugated Annexin V (BD Biosciences). […] Experiments were analyzed at 20,000 counts/sample using BD FACSVantage SE. […]

[3] = patients suffering from MPNs; cited from earlier work
BAD = BAD phosphorylation immunoblot in HEL92.1.7 derivatives; assay type: cell-based, human; conditions: Ras (G12V)-transduced HEL92.1.7, 6 hours of treatment
Protocol: FIG. 10. BAD activity, governed by phosphorylation status at Ser 112 and 136, dictates drug sensitivity and induction of apoptosis in both the drug-sensitive and resistant state. (A-C) After 6 hours of treatment with the specified drugs, protein lysates were prepared from either myr-Akt-transduced HEL92.1.7 (A), Ras (G12V)-transduced HEL92.1.7 (B), Set2-Parental, or Set2-CYTR cells (C) and immunoblotted with the indicated antibodies. Blots are representative of three replicate experiments. […] (E, F) HEL92.1.7 derivatives stably expressing the indicated ORFs were transduced with a second ORF expressing either a second control vector or BAD2SA. (E) Twenty-four hours after selection, cells were stained with 7AAD and Annexin V to measure the induction of apoptosis. Error bars indicate SD of three replicate experiments.
Immunoblotting was performed as previously described (42) and membranes were probed with primary antibodies (1:1000 dilution) recognizing p-STAT5, STAT5, p-STAT3, STAT3, BAD, p-BAD Ser112, p-BAD Ser136, p-Akt (Thr308), Akt, p-ERK1/2 (Thr202/Tyr204), ERK1/2, Pim1, BCL-XL, BCL-2, MCL-1, Bim, Bax, Bak, NaATPase, and β-Actin. All antibodies were purchased from Cell Signaling Technology.

Structure (SMILES)	sensitivity of parental and engineered Ras effector-activated cells (relative proliferation) (Set2 cells)	sensitivity of parental and engineered Ras effector-activated cells (viability and apoptosis) (HEL92.1.7 cells)	sensitization of resistant and parental Set2 cells to JAK inhibitors, co-inhibition of Akt and ERK pathways (Set2 cells)	resensitization of Ras-expressing cells to INCB, dual ERK and Akt inhibition (HEL92.1.7 cells)	also measured
CC1(C)CCC(CN2CCN(c3ccc(C(=O)NS(=O)(=O)c4ccc(NCC5CCOCC5)c([N+](=O)[O-])c4)c(Oc4cnc5[nH]ccc5c4)c3)CC2)=C(c2ccc(Cl)cc2)C1 [ABT-199]	insensitive	insensitive			
CN(C)CC[C@H](CSc1ccccc1)Nc1ccc(S(=O)(=O)NC(=O)c2ccc(N3CCN(Cc4ccccc4-c4ccc(Cl)cc4)CC3)cc2)cc1[N+](=O)[O-] [ABT-737]	sensitive	sensitive			responses relative to JAK inhibitor monotherapy [1]: improved responses; sensitivity of independently evolved JAK inhibitor-resistant cells compared to matched parental cells (Set2 cells; Set2-INCBR and Set2-CYTR vs Set2-Parental): equally sensitive
Cn1cnc2c(F)c(Nc3ccc(Br)cc3Cl)c(C(=O)NOCCO)cc21 [AZD-6244]			further sensitized		
N#CC[C@H](C1CCCC1)n1cc(-c2ncnc3[nH]ccc23)cn1 [INCB]					induction of apoptosis (Annexin-V staining) [2]: induces apoptosis; patients with transient reduction of spleen size and alleviation of some symptoms [3]: about 50 % of patients; BAD phosphorylation at Ser 112 and 136 in Ras-expressing cells (BAD): remained phosphorylated
NC1(c2ccc(-c3nc4ccn5c(=O)[nH]nc5c4cc3-c3ccccc3)cc2)CCC1 [MK-2206]			further sensitized	resensitized	resensitization of Set2-CYTR and Set2-INCBR cells to JAK inhibitors (Set2 cells; Akt inhibition with MK-2206 plus respective JAK inhibitor, compared with parental GI50 values): resensitized; resensitization of Akt-expressing cells to INCB (HEL92.1.7 cells; INCB plus second drug at constant concentration (MK-2206 10 μM; BEZ-235 0.2 μM)): fully resensitized
Cc1cnc(Nc2ccc(F)cc2Cl)nc1-c1c[nH]c(C(=O)N[C@H](CO)c2cccc(Cl)c2)c1 [VX-11E]				resensitized	
